According to publication PMC8167039, “A Comparative Study of Human and Zebrafish Pregnane X Receptor Activities of Pesticides and Steroids Using In Vitro Reporter Gene Assays” (Frontiers in Endocrinology, 2021):
Like-named read-outs stand apart in the source and are kept apart here.

Tests used:
[1] = target: T1, zfPXR (Danio rerio, UniProt A5WYG8); test: HG5LN Gal4-zfPXR luciferase reporter gene assay, antagonism (coexposure with clotrimazole); type: cell-based, zebrafish
Procedure: (§1) The cell lines used in this study are listed in Supplementary Table 3 . The HG5LN, HG5LN Gal4-hPXR and HG5LN Gal4-zfPXR cell lines were previously described ([19]). Briefly, HeLa cells stably transfected with the GAL4RE5-βGlobin-Luc-SVNeo plasmid (HG5LN cell line) ([15]). HG5LN cells were stably transfected with the pSG5-GAL4(DBD)-hPXR(LBD)-puro or pSG5-GAL4(DBD)-zfPXR(LBD)-puro plasmids.
(§2) HG5LN cells were cultured in Dulbecco’s Modified Eagle Medium: Nutrient Mixture F-12 (D-MEM/F-12) containing phenol red and 1 g/L glucose and supplemented with 5% fetal bovine serum, 100 units/mL of penicillin and 100 µg/mL of streptomycin supplemented with 1 mg/mL geneticin in a 5% CO2 humidified atmosphere at 37°C. HG5LN GAL4-hPXR and GAL4-zfPXR were cultured in the same culture medium supplemented with 0.5 µg/mL puromycin.
(§3) The ability of chemicals to modulate the hPXR and zfPXR was investigated in HG5LN, HG5LN-hPXR, HG5LN-zfPXR, and ZFL-zfPXR cell lines after exposure to serial dilutions of the compounds and measurement of luciferase activity. […] Briefly, cells were seeded in 96-well white opaque flat bottom microplates at 0.5 10^5 cells per well in culture medium. […] Cells were then exposed to a concentration range of the compounds by using an automated workstation (Biomek 3000, Beckman Coulter). The final concentration of DMSO in the well never exceeds 0.1% (v/v). After 16h of exposure, medium was removed and 50 µL of test medium containing 0.3 mM D-luciferin were added per well. After 5 min, the production of light was assessed in living cells using microplate reader (MicroBeta, PerkinElmer SAS, Courtabœuf, France).
(§4) In the transactivation assay, each compound was tested at various concentrations in three independent experiments at least. For each experiment, tests were performed in quadruplicates for each concentration, and data are expressed by means values with standard deviations. […] This allowed to determine EC50 and IC50 values of tested chemicals.

[2] = target: T2, hPXR (Homo sapiens, UniProt O75469); test: HG5LN Gal4-hPXR luciferase reporter gene assay, agonism
T2 sequence (O75469 146-433 limits assumed): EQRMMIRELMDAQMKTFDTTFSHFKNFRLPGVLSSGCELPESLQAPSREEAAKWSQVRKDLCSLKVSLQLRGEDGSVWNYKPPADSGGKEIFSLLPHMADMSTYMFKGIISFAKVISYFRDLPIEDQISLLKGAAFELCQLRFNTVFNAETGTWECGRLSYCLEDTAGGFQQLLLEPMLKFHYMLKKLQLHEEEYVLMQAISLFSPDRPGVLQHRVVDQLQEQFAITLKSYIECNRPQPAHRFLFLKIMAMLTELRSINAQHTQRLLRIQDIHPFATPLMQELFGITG
Procedure: as §1, §2, §3, §4

[3] = target: T1, zfPXR; test: HG5LN Gal4-zfPXR luciferase reporter gene assay, agonism; type: cell-based, zebrafish; design: Emax: dose or concentration left out as unconfirmed; conditions: for effect on zfPXR transcriptional activity (in words): HG5LN Gal-zfPXR cells; for zfPXR agonism Max: HG5LN-zfPXR, % of maximal induced by 1 µM clotrimazole, DMSO 28 ± 1.7
Procedure: as §1, §2, §3, §4

[4] = HG5LN, read-out: zfPXR antagonism Min
[5] = HG5LN-hPXR, maximal activity at 10 µM, % of maximal induced by 3 µM SR 12813, DMSO 19 ± 6
[6] = HG5LN, read-out: zfPXR agonism Max
[7] = HG5LN-zfPXR cells, 16h exposure, n.a. = not active, read-out: zfPXR agonism EC50
[8] = compounds marked *, not tested above 3 µM (clotrimazole: 1 µM)
[9] = read-out: hPXR agonism EC50, HG5LN-hPXR cells, 16h exposure, n.a. = not active

T1 sequence (A5WYG8 entry or part of it): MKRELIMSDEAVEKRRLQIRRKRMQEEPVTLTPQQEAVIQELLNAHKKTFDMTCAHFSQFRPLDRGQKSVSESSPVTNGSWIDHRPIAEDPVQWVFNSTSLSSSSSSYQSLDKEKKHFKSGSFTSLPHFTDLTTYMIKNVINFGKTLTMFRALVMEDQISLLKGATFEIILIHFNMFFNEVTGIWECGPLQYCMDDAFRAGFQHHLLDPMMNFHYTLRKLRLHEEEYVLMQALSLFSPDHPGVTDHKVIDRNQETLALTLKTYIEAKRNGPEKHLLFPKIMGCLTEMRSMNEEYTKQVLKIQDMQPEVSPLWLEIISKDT

SMILES | EC50 [2] | hPXR agonism Max [2, 5] | hPXR agonism Max [2] | EC50 [3] | other results
CC1(C)[C@H](C(=O)O[C@H](C#N)c2cccc(Oc3ccccc3)c2)[C@@H]1/C=C(\Cl)C(F)(F)F (racemic) [λ-Cyhalothrin] | 1.7 ± 0.2 µM | 107% |  |  | IC50 [1]: 6.8 ± 1 µM; remaining activity at 10 µM [1, 4]: 45%
CC1(C)C(C=C(Cl)Cl)C1C(=O)OC(C#N)c1cccc(Oc2ccccc2)c1 (stereo not shown) [Cypermethrin] |  |  |  |  | IC50 [1]: 5 ± 0.3 µM; remaining activity at 10 µM [1, 4]: 31%
C[C@@H]1C[C@H]2[C@@H]3CCC4=CC(=O)C=C[C@]4(C)[C@@]3(F)[C@@H](O)C[C@]2(C)[C@@]1(O)C(=O)CO [Dexamethasone, reference compound] |  |  |  |  | effect on zfPXR transcriptional activity (in words) [3]: no effect; effect on zfPXR transcriptional activity (in words) ([3]; listed as dexamethasone): do not modulate; effect on hPXR transcriptional activity (in words) [2]: no effect
COC(=O)C(C)Oc1ccc(Oc2ccc(Cl)cc2Cl)cc1 (stereo not shown) [Diclofop-methyl] |  |  |  |  | remaining activity at 10 µM ([1]; HG5LN; read-out: zfPXR antagonism Min): 65%
ClC1=C(Cl)[C@]2(Cl)[C@@H]3[C@@H]4C[C@@H]([C@H]5O[C@@H]45)[C@@H]3[C@@]1(Cl)C2(Cl)Cl [Dieldrin] | 9.2 ± 1.4 µM |  | 62% |  | IC50 [1]: 19 ± 8.8 µM
C[C@]12CCC(=O)C=C1[C@@H]1C[C@@H]1[C@H]1[C@@H]3[C@@H]4C[C@@H]4[C@@]4(CCC(=O)O4)[C@@]3(C)CC[C@@H]12 [Drospirenone, reference compound] |  | 44% |  |  | remaining activity at 10 µM [1, 4]: 52%; IC50 ([1]; read-out: zfPXR antagonism IC50): 3.6 ± 0.4 µM
O=S1OCC2C(CO1)C1(Cl)C(Cl)=C(Cl)C2(Cl)C1(Cl)Cl (stereo not shown) [Endosulfan] | 5.7 ± 0.4 µM | 72% |  | 11 ± 1.5 µM | Emax [3, 6]: 57%
ClC1=C(Cl)C2(Cl)C3C4CC(C5OC45)C3C1(Cl)C2(Cl)Cl (stereo not shown) [Endrin] | 6.9 ± 1.2 µM |  | 66% | 14 ± 1.2 µM | 
CCCSP(=O)(OCC)SCCC [Ethoprophos] |  | 33% |  |  | Emax [3, 6]: 38%
C#C[C@]1(O)CC[C@H]2[C@@H]3CCC4=CC(=O)CC[C@@H]4[C@H]3C(=C)C[C@@]21CC [Etonogestrel, reference compound] | 24 ± 4.6 µM |  |  |  | EC50 [3, 7]: 2.3 ± 0.2 µM; Emax at 10 µM [3, 6]: 90%
CCOP(=O)(NC(C)C)Oc1ccc(SC)c(C)c1 (stereo not shown) [Fenamiphos] |  |  | 76% | 0.7 ± 0.21 µM | zfPXR agonism Max ([3]; maximal activity at 10 µM): 103%
OC(c1ccc(Cl)cc1)(c1cncnc1)c1ccccc1Cl (stereo not shown) [Fenarimol] | 13 ± 2.2 µM | 56% |  |  | IC50 [1]: 24 ± 7.1 µM; remaining activity at 10 µM [1, 4]: 66%
ClC1=C(Cl)[C@]2(Cl)[C@@H]3[C@@H](Cl)[C@@H]4O[C@@H]4[C@@H]3[C@@]1(Cl)C2(Cl)Cl [Heptachlor endo-epoxide] |  |  | 69% |  | EC50 [3, 7]: 2 ± 0.9 µM; zfPXR agonism Max [3, 8]: 32%; EC50 [2, 9]: 3.4 ± 0.7 µM
ClC1=C(Cl)[C@]2(Cl)[C@@H]3[C@@H](Cl)[C@H]4O[C@H]4[C@@H]3[C@@]1(Cl)C2(Cl)Cl [Heptachlor exo-epoxide] |  |  | 85% |  | EC50 [3, 7]: 1.4 ± 0.04 µM; zfPXR agonism Max [3, 8]: 76%; EC50 [2, 9]: 1.9 ± 0.1 µM
ClC1=C(Cl)C2(Cl)C3C(Cl)C=CC3C1(Cl)C2(Cl)Cl (stereo not shown) [Heptachlor] |  | 43% |  | 7.4 ± 1.8 µM | Emax [3, 6]: 44%
C=CCOC(Cn1ccnc1)c1ccc(Cl)cc1Cl (stereo not shown) [Imazalil] | 10 ± 1.4 µM |  |  | 9.8 ± 2.6 µM | hPXR agonism Max ([2]; HG5LN-hPXR, compounds marked *, not tested above 3 µM (clotrimazole, SPA70: 1 µM), % of maximal induced by 3 µM SR 12813, DMSO 19 ± 6): 39%
Cl[C@H]1[C@H](Cl)[C@@H](Cl)[C@@H](Cl)[C@H](Cl)[C@H]1Cl [Lindane] | 10 ± 1.8 µM |  | 62% | 14 ± 0.9 µM | 
